Here are results for four compounds from patent US20250034216A1, “STEREOSELECTIVE COVALENT LIGANDS FOR ONCOGENIC AND IMMUNOLOGICAL PROTEINS” (The Scripps Research Institute, priority 2021, published 2025).

Molecules are shown by their SMILES.

Common to all, as to assay: IA-DTB cysteine engagement
What all share (format): binding
Common to all, as to conditions: 22Rv1 cells, 20 μM probe, 1 h, relative to DMSO

In test [1] the target is T1, IFT43_C58 (Homo sapiens, UniProt Q96FT9).
T1 construct: endogenous in cells; host or cells: 22Rv1
T1 sequence (Q96FT9 1-208): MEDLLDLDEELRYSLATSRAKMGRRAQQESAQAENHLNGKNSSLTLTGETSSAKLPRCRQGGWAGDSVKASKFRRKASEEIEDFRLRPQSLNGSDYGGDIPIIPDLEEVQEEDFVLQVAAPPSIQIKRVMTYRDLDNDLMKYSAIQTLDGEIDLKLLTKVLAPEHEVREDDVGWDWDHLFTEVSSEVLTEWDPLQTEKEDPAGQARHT
The method, boiled down: (§1)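 Probe-exposed cells were lysed, IA-DTB-labeled, trypsinized and streptavidin-enriched. Multiplexed TMT quantitation gave engagement ratios versus DMSO, with non-tryptic peptides excluded and intensities normalized to median summed signal.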

In test [2] the target is T2, TM7SF2_C184 (Homo sapiens, UniProt O76062).
T2 construct: endogenous in cells; host or cells: 22Rv1
T2 sequence (O76062 1-418): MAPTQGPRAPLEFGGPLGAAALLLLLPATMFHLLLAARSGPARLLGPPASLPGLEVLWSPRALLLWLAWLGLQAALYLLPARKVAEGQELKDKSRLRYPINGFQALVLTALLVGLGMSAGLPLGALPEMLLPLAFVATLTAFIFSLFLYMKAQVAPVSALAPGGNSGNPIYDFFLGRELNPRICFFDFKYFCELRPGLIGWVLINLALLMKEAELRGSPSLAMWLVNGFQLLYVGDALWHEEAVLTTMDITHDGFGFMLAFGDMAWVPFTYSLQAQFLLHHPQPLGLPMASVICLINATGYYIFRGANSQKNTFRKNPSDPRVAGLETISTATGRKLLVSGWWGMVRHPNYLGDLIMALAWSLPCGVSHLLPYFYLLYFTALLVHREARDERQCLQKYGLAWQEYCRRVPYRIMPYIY
Put shortly: as §1

For test [3], the target named is T3, TRPM4_C759 (Homo sapiens, UniProt Q8TD43).
T3 construct: endogenous in cells; host or cells: 22Rv1
Put shortly:
as §1

T3 sequence (Q8TD43 whole entry): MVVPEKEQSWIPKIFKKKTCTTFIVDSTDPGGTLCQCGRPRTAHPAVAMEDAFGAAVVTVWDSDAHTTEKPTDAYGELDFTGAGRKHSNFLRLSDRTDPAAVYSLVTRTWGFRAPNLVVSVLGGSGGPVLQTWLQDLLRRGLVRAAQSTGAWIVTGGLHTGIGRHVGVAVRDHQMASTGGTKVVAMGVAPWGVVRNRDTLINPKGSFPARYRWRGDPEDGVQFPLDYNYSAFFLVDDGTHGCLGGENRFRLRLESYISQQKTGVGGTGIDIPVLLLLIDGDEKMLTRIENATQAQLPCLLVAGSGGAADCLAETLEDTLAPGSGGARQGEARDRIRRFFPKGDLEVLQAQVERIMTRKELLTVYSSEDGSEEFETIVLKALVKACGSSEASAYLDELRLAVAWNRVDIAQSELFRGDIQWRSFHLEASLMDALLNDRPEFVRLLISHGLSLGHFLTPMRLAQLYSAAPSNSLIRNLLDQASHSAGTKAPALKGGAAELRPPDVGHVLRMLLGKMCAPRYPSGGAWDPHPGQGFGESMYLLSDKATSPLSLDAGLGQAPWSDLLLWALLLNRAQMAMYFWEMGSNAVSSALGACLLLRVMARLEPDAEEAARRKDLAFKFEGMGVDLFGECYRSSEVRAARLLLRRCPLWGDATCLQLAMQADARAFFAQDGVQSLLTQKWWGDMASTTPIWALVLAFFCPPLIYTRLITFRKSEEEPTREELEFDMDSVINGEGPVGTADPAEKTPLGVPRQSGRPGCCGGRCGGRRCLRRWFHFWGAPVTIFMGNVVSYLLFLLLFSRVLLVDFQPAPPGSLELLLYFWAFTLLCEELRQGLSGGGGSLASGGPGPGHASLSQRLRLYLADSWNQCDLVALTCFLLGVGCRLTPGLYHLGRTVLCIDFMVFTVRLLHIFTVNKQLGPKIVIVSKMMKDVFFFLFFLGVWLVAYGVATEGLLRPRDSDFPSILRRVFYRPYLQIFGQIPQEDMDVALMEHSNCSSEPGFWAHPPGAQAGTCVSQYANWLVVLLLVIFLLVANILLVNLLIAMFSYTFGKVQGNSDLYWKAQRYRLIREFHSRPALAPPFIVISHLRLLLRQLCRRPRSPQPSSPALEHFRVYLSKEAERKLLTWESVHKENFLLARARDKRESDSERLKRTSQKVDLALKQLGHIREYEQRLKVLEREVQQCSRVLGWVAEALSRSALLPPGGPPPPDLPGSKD

As for `C=CC(=O)N1C[C@H](c2ccc(Br)cc2)[C@H]1C(=O)Nc1cccc2cccnc12` [MY-3A, (2S,3S)-1-acryloyl-3-(4-bromophenyl)-N-(quinolin-8-yl)azetidine-2-carboxamide], the “% engagement IFT43_C58” value in test [1] is listed as 17%. The “% engagement TM7SF2_C184” value in test [2] stood at 66.5%. For the same compound, the “% engagement TRPM4_C759” value in test [3] is 50.25%.

Consider `C=CC(=O)N1C[C@@H](c2ccc(Br)cc2)[C@H]1C(=O)Nc1cccc2cccnc12` [MY-1A, (2S,3R)-1-acryloyl-3-(4-bromophenyl)-N-(quinolin-8-yl)azetidine-2-carboxamide], for which the “% engagement IFT43_C58” value in test [1] stood at 28.5%. Moreover, in test [2], the “% engagement TM7SF2_C184” value is 86.5%. Also, the “% engagement TRPM4_C759” value in test [3] is given as 69.75%.

Take `C=CC(=O)N1C[C@H](c2ccc(Br)cc2)[C@@H]1C(=O)Nc1cccc2cccnc12` [MY-1B, (2R,3S)-1-acryloyl-3-(4-bromophenyl)-N-(quinolin-8-yl)azetidine-2-carboxamide]: the “% engagement IFT43_C58” value in test [1] is on record as −17%. For the same compound, the “% engagement TM7SF2_C184” value in test [2] is 64%. Also, the “% engagement TRPM4_C759” value in test [3] was 48.75%.

As to `C=CC(=O)N1C[C@H](c2ccc(Br)cc2)[C@H]1C(=O)Nc1cccc2cccnc12` [MY-3B, (2S,3S)-1-acryloyl-3-(4-bromophenyl)-N-(quinolin-8-yl)azetidine-2-carboxamide], in test [1], the “% engagement IFT43_C58” value was 71.5%. Also, the “% engagement TM7SF2_C184” value in test [2] amounted to 100%. For the same compound, in test [3], the “% engagement TRPM4_C759” value amounted to 76.25%.
